Test results: patent US20230062119A1, “USE OF BIOMARKERS IN IDENTIFYING PATIENTS THAT WILL BE RESPONSIVE TO TREATMENT WITH A PRMT5 INHIBITOR” (Merck Sharp & Dohme LLC, priority 2019, published 2023)
Structures can show the parent of a compound that is named as a salt.

These compounds were tested against T1, Full-length (FL)-PRMT5-MEP50 enzyme complex (Homo sapiens, UniProt O14744) (assay: PRMT5-MEP50 Enzyme Methylation Assay). Conditions: one EC50: 4 parameters single site sigmoidal model; EC50 1: first value of 7 parameters biphasic model; 1.0 nM PRMT5-MEP50, 75 nM biotinylated peptide, 15 μM SAM; read-out: Enzyme Methylation Assay (EC50 or EC50 1).
T1 construct: Full-length (FL)-PRMT5-MEP50 enzyme complex (recombinant proteins from baculovirus-transfected Sf21 cells: FL-PRMT5; MW=73837 kDa and FL-MEP50; MW=38614); made in house; host or cells: baculovirus-transfected Sf21 insect cells
T1 sequence (O14744 whole entry): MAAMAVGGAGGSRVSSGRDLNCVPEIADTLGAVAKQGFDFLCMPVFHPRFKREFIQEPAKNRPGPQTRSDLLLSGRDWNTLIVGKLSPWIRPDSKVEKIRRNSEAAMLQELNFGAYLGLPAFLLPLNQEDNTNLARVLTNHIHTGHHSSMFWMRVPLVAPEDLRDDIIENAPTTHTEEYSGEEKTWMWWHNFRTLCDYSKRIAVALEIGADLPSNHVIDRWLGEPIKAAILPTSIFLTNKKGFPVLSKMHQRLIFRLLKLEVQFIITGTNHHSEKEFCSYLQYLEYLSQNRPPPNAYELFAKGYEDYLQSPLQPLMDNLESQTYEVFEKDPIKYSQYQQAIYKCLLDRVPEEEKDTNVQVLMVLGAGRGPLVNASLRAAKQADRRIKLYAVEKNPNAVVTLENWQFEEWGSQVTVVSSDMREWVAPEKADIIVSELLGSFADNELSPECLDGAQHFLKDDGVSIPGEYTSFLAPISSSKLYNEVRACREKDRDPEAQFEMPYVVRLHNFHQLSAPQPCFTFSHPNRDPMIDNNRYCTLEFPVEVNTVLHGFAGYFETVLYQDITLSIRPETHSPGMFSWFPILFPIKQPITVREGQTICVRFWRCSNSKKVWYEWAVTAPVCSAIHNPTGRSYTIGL
T1 sequence (Q9BQA1 whole entry partner): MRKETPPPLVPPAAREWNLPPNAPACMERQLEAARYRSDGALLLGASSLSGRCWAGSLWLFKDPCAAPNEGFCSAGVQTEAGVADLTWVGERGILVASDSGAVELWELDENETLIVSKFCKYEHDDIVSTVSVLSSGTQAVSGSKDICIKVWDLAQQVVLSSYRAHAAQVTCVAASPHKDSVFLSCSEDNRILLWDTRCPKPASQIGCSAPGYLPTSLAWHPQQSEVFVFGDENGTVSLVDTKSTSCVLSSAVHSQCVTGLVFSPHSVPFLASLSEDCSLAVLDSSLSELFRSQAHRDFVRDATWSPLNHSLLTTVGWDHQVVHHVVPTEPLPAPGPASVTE
Assay type: biochemical
Summary of the method: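 Compound was pre-incubated 60 min at 37°C with 1.0 nM enzyme and 15 μM SAM (final) in 50 mM Bicine pH 8.0, then 75 nM biotinylated H4R3(Me1) peptide was added and reacted 150 min; twenty-point 1:2 titration from 100000 nM, 1% DMSO. Formic acid quench; SAMDI mass spectrometry measured Me1-to-Me2 conversion, EC50 by 4- or 7-parameter regression.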

SMILES | EC50 [nM]
Cc1nc(N)c2ccn([C@@H]3C[C@@H]4[C@H](Cc5ccc6cc(Cl)c(N)nc6c5)CC[C@]4(O)[C@H]3O)c2n1 [Example 31, (1S,2R,3aR,4S,6aR)-2-(4-amino-2-methyl-7H-pyrrolo[2,3-d]pyrimidin-7-yl)-4-((2-amino-3-chloroquinolin-7-yl)methyl)hexahydropentalene-1,6a(1H)-diol 2,2,2-trifluoroacetate] | 0.4
C[C@]1(COc2ccc3cccnc3c2)O[C@@H](n2ccc3c(N)ncnc32)[C@H](O)[C@@H]1O [Example 98, (2R,3S,4R,5R)-5-(4-amino-7H-pyrrolo[2,3-d]pyrimidin-7-yl)-2-methyl-2-((quinolin-7-yloxy)methyl)tetrahydrofuran-3,4-diol] | 3.4
Cc1ncnc2c1ccn2[C@@H]1C[C@@H]2[C@H](Cc3ccc4cc(F)c(N)nc4c3)CC[C@]2(O)[C@H]1O [Example 16, (1S,2R,3aR,4S,6aR)-4-((2-amino-3-fluoroquinolin-7-yl)methyl)-2-(4-methyl-7H-pyrrolo[2,3-d]pyrimidin-7-yl)hexahydropentalene-1,6a(1H)-diol] | 0.4
CC(C)c1ncnc2c1ccn2[C@@H]1O[C@@H]2[C@H](Cc3ccc4cc(Br)c(N)nc4c3)CC[C@]2(O)[C@H]1O [Example 83, (2R,3R,3aS,6S,6aR)-6-((2-amino-3-bromoquinolin-7-yl)methyl)-2-(4-isopropyl-7H-pyrrolo[2,3-d]pyrimidin-7-yl)hexahydro-3aH-cyclopenta[b]furan-3,3a-diol] | 1.2
Nc1nc2nc(C[C@@H]3CC[C@@]4(O)[C@@H]3O[C@@H](n3ccc5c(N)ncnc53)[C@@H]4O)ccc2cc1Cl [Example 28, (2R,3R,3aS,6S,6aR)-6-((7-amino-6-chloro-1,8-naphthyridin-2-yl)methyl)-2-(4-amino-7H-pyrrolo[2,3-d]pyrimidin-7-yl)hexahydro-3aH-cyclopenta[b]furan-3,3a-diol trihydrochloride] | 0.8
Nc1nc2cc(O[C@H]3CC[C@@]4(O)[C@@H]3O[C@@H](n3cc(-c5ccccc5)c5c(N)ncnc53)[C@@H]4O)ccc2cc1Br [Example 49, (2R,3R,3aS,6S,6aR)-6-[(2-amino-3-bromoquinolin-7-yl)oxy]-2-(4-amino-5-phenyl-7H-pyrrolo[2,3-d]pyrimidin-7-yl)hexahydro-3aH-cyclopenta[b]furan-3,3a-diol] | 0.5
Nc1nc2cc(C[C@H]3[C@H]4O[C@@H](n5ccc6c(N)ncnc65)[C@H](O)[C@@]4(O)CC3(F)F)ccc2cc1F [Example 53, (2R,3R,3aS,6S,6aR)-6-[(2-amino-3-fluoroquinolin-7-yl)methyl]-2-(4-amino-7H-pyrrolo[2,3-d]pyrimidin-7-yl)-5,5-difluorohexahydro-3aH-cyclopenta[b]furan-3,3a-diol] | 0.3
Nc1nc2cc(C[C@H]3[C@H]4O[C@@H](n5cc(F)c6c(N)ncnc65)[C@H](O)[C@@]4(O)C[C@@H]3F)ccc2cc1F [Example 55, (2R,3R,3aS,5S,6S,6aR)-2-(4-amino-5-fluoro-7H-pyrrolo[2,3-d]pyrimidin-7-yl)-6-[(2-amino-3-fluoroquinolin-7-yl)methyl]-5-fluorohexahydro-3aH-cyclopenta[b]furan-3,3a-diol, 2,2,2-trifluoroethanol] | 0.5
Cc1ncnc2c1ccn2[C@@H]1O[C@@H]2[C@H](Cc3ccc4cc(Cl)c(N)nc4c3)CC[C@]2(O)[C@H]1O [Example 122, (2R,3R,3aS,6S,6aR)-6-((2-amino-3-chloroquinolin-7-yl)methyl)-2-(4-methyl-7H-pyrrolo[2,3-d]pyrimidin-7-yl)hexahydro-3aH-cyclopenta[b]furan-3,3a-diol] | 0.6
CNc1ncnc2c1ccn2[C@@H]1O[C@@H]2[C@H](Cc3ccc4cc(Br)c(N)nc4c3)CC[C@]2(O)[C@H]1O [Example 92, (2R,3R,3aS,6S,6aR)-6-((2-amino-3-bromoquinolin-7-yl)methyl)-2-(4-(methylamino)-7H-pyrrolo[2,3-d]pyrimidin-7-yl)hexahydro-3aH-cyclopenta[b]furan-3,3a-diol] | 0.5
Cc1nc(N)c2ccn([C@@H]3O[C@@H]4[C@H](Cc5ccc6cc(Br)c(N)nc6c5)CC[C@]4(O)[C@H]3O)c2n1 [Example 61, (2R,3R,3aS,6S,6aR)-2-(4-amino-2-methyl-7H-pyrrolo[2,3-d]pyrimidin-7-yl)-6-((2-amino-3-bromoquinolin-7-yl)methyl)hexahydro-3aH-cyclopenta[b]furan-3,3a-diol] | 0.5
CNc1ncnc2c1ccn2[C@@H]1O[C@@H]2[C@H](Cc3ccc4cc(F)c(N)nc4c3)CC[C@]2(O)[C@H]1O [Example 95, (2R,3R,3aS,6S,6aR)-6-((2-amino-3-fluoroquinolin-7-yl)methyl)-2-(4-(methylamino)-7H-pyrrolo[2,3-d]pyrimidin-7-yl)hexahydro-3aH-cyclopenta[b]furan-3,3a-diol] | 2.8
Cc1ncnc2c1ccn2[C@@H]1C[C@](C)(CCc2ccc3cc4c(nc3c2)NCC4)[C@@H](O)[C@H]1O [Example 110, (1S,2R,3S,5R)-3-(2-(2,3-dihydro-1H-pyrrolo[2,3-b]quinolin-7-yl)ethyl)-3-methyl-5-(4-methyl-7H-pyrrolo[2,3-d]pyrimidin-7-yl)cyclopentane-1,2-diol] | 0.9
Nc1nc2cc(C[C@@H]3CC[C@@]4(O)[C@@H]3O[C@@H](n3cc(C(F)F)c5c(N)ncnc53)[C@@H]4O)ccc2cc1F [Example 51, (2R,3R,3aS,6S,6aR)-2-[4-amino-5-(difluoromethyl)-7H-pyrrolo[2,3-d]pyrimidin-7-yl]-6-[(2-amino-3-fluoroquinolin-7-yl)methyl]hexahydro-3aH-cyclopenta[b]furan-3,3a-diol] | 1.2
Nc1nc2cc(C[C@@H]3CC[C@@]4(O)[C@@H]3O[C@@H](n3ccc5c(N)ncnc53)[C@@H]4O)c(F)cc2cc1F [Example 27, (2R,3R,3aS,6S,6aR)-6-[(2-amino-3,6-difluoroquinolin-7-yl)methyl]-2-(4-amino-7H-pyrrolo[2,3-d]pyrimidin-7-yl)hexahydro-3aH-cyclopenta[b]furan-3,3a-diol] | 0.4
Cc1nc(N)c2c(F)cn([C@@H]3O[C@@H]4[C@H](Cc5ccc6cc(F)c(N)nc6c5)CC[C@]4(O)[C@H]3O)c2n1 [Example 44, (2R,3R,3aS,6S,6aR)-6-((2-amino-3-fluoroquinolin-7-yl)methyl)-2-(4-amino-5-fluoro-2-methyl-7H-pyrrolo[2,3-d]pyrimidin-7-yl)hexahydro-3aH-cyclopenta[b]furan-3,3a-diol 2,2,2-trifluoroacetate] | 0.4
Nc1nc2cc(C[C@@H]3CC[C@@]4(O)[C@@H]3O[C@@H](n3cc(F)c5c(N)ncnc53)[C@@H]4O)ccc2cc1Br [Example 108, (2R,3R,3aS,6S,6aR)-6-((2-amino-3-bromoquinolin-7-yl)methyl)-2-(4-amino-5-fluoro-7H-pyrrolo[2,3-d]pyrimidin-7-yl)hexahydro-2H-cyclopenta[b]furan-3,3a-diol] | 0.2
C[C@@]1(O)[C@@H](COc2ccc3cc(Br)c(N)nc3c2)C[C@@H](n2ccc3c(N)ncnc32)[C@@H]1O [Example 2, (1R,2S,3R,5R)-5-(((2-amino-3-bromoquinolin-7-yl)oxy)methyl)-3-(4-amino-7H-pyrrolo[2,3-d]pyrimidin-7-yl)-1-methylcyclopentane-1,2-diol] | 0.5

Same assay, conditions: second EC50 of 7 parameters biphasic model; 1.0 nM PRMT5-MEP50, 75 nM biotinylated peptide, 15 μM SAM; read-out: Enzyme Methylation Assay (EC50 2)

SMILES | EC50 [nM]
C[C@]1(COc2ccc3cccnc3c2)O[C@@H](n2ccc3c(N)ncnc32)[C@H](O)[C@@H]1O [Example 98, (2R,3S,4R,5R)-5-(4-amino-7H-pyrrolo[2,3-d]pyrimidin-7-yl)-2-methyl-2-((quinolin-7-yloxy)methyl)tetrahydrofuran-3,4-diol] | 2570
Nc1nc2cc(C[C@H]3[C@H]4O[C@@H](n5cc(F)c6c(N)ncnc65)[C@H](O)[C@@]4(O)C[C@@H]3F)ccc2cc1F [Example 55, (2R,3R,3aS,5S,6S,6aR)-2-(4-amino-5-fluoro-7H-pyrrolo[2,3-d]pyrimidin-7-yl)-6-[(2-amino-3-fluoroquinolin-7-yl)methyl]-5-fluorohexahydro-3aH-cyclopenta[b]furan-3,3a-diol, 2,2,2-trifluoroethanol] | 191
